ChEMBL document CHEMBL1687859, “Therapeutic efficacy of halocidin-derived peptide HG1 in a mouse model of surgical wound infection with methicillin-resistant Staphylococcus aureus” (Antimicrob Agents Chemother, 2011)
In brackets after ≈: the same amount, converted by molar mass. Activity calls are given as the source filed them. The calls are words filed in the database; no cut-off is given here. Bridge positions count the residues as written; N and C are the ends. Peptide text beside a SMILES is read from it. I, II: the chains in the order shown.

Experiments:
Zone of skin [1] = experiment: Drug penetration in ICR mouse skin administered topically using plastic cylinder by HPLC analysis; format: ADME, tissue-based; details: in vivo, topical_or_ocular
Zone of skin [2] = experiment: Drug penetration in ICR mouse skin administered topically using plastic cylinder by immunoblotting; format: ADME, tissue-based; details: in vivo, topical_or_ocular
Zone of skin [3] = experiment: Drug penetration in ICR mouse skin administered topically using plastic cylinder by fluorescence microscopy; format: ADME, tissue-based; details: in vivo, topical_or_ocular
Staphylococcus aureus [4] = experiment: Antibacterial activity against methicillin-resistant Staphylococcus aureus; format: functional
Staphylococcus aureus [5] = experiment: Antibacterial activity against methicillin-resistant Staphylococcus aureus infected in ICR mouse surgical wound model assessed as reduction of CFU administered topically every 12 hrs for 5 days; format: functional
Zone of skin [6] = experiment: Drug penetration in ethidium bromide-labeled methicillin-resistant Staphylococcus aureus infected ICR mouse skin administered topically after 4 hrs by confocal microscopic analysis; format: ADME, tissue-based; details: in vivo, topical_or_ocular
Staphylococcus aureus [7] = experiment: Drug binding to ethidium bromide-labeled methicillin-resistant Staphylococcus aureus infected in ICR mouse skin administered topically after 4 hrs by confocal microscopic analysis; format: ADME, organism-based; details: in vivo, topical_or_ocular
Staphylococcus aureus [8] = experiment: Antibacterial activity against ethidium bromide-labeled methicillin-resistant Staphylococcus aureus infected in ICR mouse skin administered topically after 4 hrs by confocal microscopic analysis; format: functional, organism-based

CC(C)C[C@H](NC(=O)CNC(=O)[C@H](Cc1cnc[nH]1)NC(=O)[C@H](Cc1cnc[nH]1)NC(=O)[C@H](CC(C)C)NC(=O)[C@H](CC(C)C)NC(=O)[C@H](C)NC(=O)[C@H](CC(N)=O)NC(=O)[C@H](CC(C)C)NC(=O)[C@H](Cc1c[nH]c2ccccc12)NC(=O)[C@@H](N)CCCCN)C(=O)N[C@@H](CC(N)=O)C(=O)N[C@@H](CSSC[C@H](NC(=O)[C@H](CC(N)=O)NC(=O)[C@H](CC(C)C)NC(=O)CNC(=O)[C@H](Cc1cnc[nH]1)NC(=O)[C@H](Cc1cnc[nH]1)NC(=O)[C@H](CC(C)C)NC(=O)[C@H](CC(C)C)NC(=O)[C@H](C)NC(=O)[C@H](CC(N)=O)NC(=O)[C@H](CC(C)C)NC(=O)[C@H](Cc1c[nH]c2ccccc12)NC(=O)[C@@H](N)CCCCN)C(=O)N[C@@H](C)C(=O)N[C@@H](CCCCN)C(=O)NCC(=O)N[C@H](C(=O)N[C@@H](CC(C)C)C(=O)N[C@@H](C)C(N)=O)C(C)C)C(=O)N[C@@H](C)C(=O)N[C@@H](CCCCN)C(=O)NCC(=O)N[C@H](C(=O)N[C@@H](CC(C)C)C(=O)N[C@@H](C)C(N)=O)C(C)C (I: H-KWLNALLHHGLNCAKGVLA-NH2 / II: H-KWLNALLHHGLNCAKGVLA-NH2; disulfide I:13-II:13)
Drug uptake (Zone of skin [1]): Active
Drug uptake (Zone of skin [2]): Active
Drug uptake (Zone of skin [3]): Active
MIC (Staphylococcus aureus [4]): 4 µg/mL (≈ 0.973 µM)
CFU (Staphylococcus aureus [5]): 3
Drug uptake (Zone of skin [6]): Active
Activity (Staphylococcus aureus [7]): Active
Activity (Staphylococcus aureus [8]): Active
